The source of these data is patent US9133208B2, “Radiolabelled rotenone derivatives and their use in SPECT imaging” (priority 2011, dated 2015).

The subject of data set [1] is pig heart. The data set can be described thus: Uptake of radiotracers as a function of myocardial blood flow (MBF) in pig heart. The class given is in vivo. The settings on record: for myocardial flow rate at which uptake begins to level off (roll off): two hours after injection, stress and induced ischemic conditions. From the text: The tissue and blood samples were weighed and measured using a gamma well counter to determine the amount of gamma radiation emitted by the I-123 radiolabel of the radio-iodinated tracers of the present invention. The measured gamma radiation in each segment represents the combined amount of gamma radiation emitted by the tracers in that segment during the resting and stressed states of the heart. The counts and the weights of the samples were also used to calculate the percentage of injected dose per gram of tissue (% ID/g). After the I-123 in the blood and tissue samples had completely decayed, both the tissue and the blood were dried in an oven at 70° C. for 48-72 h, the samples were sent for neutron activation and the gamma radiation emitted by each of the resulting radioactive [^198Au]gold-containing microspheres and [^153Sm]samarium-containing microspheres, which were embedded in the samples, were measured. Polar maps of the resting and stressed states of the isolated heart of the pig were generated using MATLAB™ to assemble the gamma measurement results in all the transected segments from the bottom (apex) to the top (AV groove) of the pig heart.
The myocardial blood flow (MBF) that was present in the tissue samples during the resting and stressed states was determined from the total amount of gamma radiation emitted from each of the radioactive gold and samarium microspheres, respectively, in the isolated transections of the heart of the pig and the dried blood sample according to the following equation: MBF=[(Reference blood sample withdrawal rate (4 mL/min)/(Weight of myocardial sample (g)]×[Isotope count (myocardial sample)/Isotope counts (reference blood sample)].
FIG. 8 illustrates a plot of uptake (percent of injected dose per gram of tissue; % ID/g) of the radiotracer compounds of the present invention as a function of the myocardial blood flow in the pig heart under stress and induced ischemic conditions as determined using the marked microspheres.

The test system of data set [2] is dog heart. The data set can be described thus: Literature tracer uptake vs microsphere flow in dog with critical LAD stenosis (Broisat et al., Glover et al.). The class given is in vivo. From the text: The slope of a non-linear fitted line to the ^123I-ZIROT data shown in FIG. 3 of Broisat et al. is −3.59.
Data set [3] has as its system rabbit hearts. The data set can be described thus: Myocardial distribution in isolated retrograde perfused (Langendorff) rabbit heart. The settings on record: for fractional appearance rates at later time points / initial peak fractional venous appearance rate: flow rate 1.7 ml/min/g LV, FIG. 9, qualitative. Further details: species or system New Zealand White rabbits. As to the method: Preparation of retrograde perfusion (Langendorff) was performed as previously described (R. C. Marshall, P. Powers-Risius, B. W. Reutter, S. E. Taylor, H. F. VanBrocklin, R. H. Huesman, T. F. Budinger J Nucl Med. 2001; 42:272-281, which is incorporated by reference herein) using hearts from 1.5-2.5 kg male New Zealand White rabbits (Charles River, Wilmington Mass.). Following an injection of heparin (5 mg/kg) and median sternotomy, hearts were excised keeping the ascending aorta and aortic branches, lungs and thymus intact. The hearts were immediately placed into an ice-cold bath containing modified Tyrode's solution ([…], 1 mM MgCl2, 28 mM NaHCO3, 0.44 mM NaH2PO4, 2.5 mM CaCl2, 6 mM KCl, 5 mM glucose, […] with 22 g/L BSA and aerated with 95% O2/5% CO2) and thymus and fatty tissue were quickly removed. The hearts were then suspended on an aortic cannula and perfused with pre-warmed modified Tyrode's buffer through a water jacketed, temperature regulated Langendorff perfusion system (Radnotti, Calif., USA) at a constant flow rate. Total time for suspension onto the Langendorff apparatus was typically 60 seconds or less. Following suspension on the aortic cannula, the remaining lung, trachea and extraneous tissues were removed.
Fluid from Thebesian circulation was drained via a polyethylene catheterized apical drain. A fluid filled latex ballon connected to a pressure transducer (Radnotti) was inserted into the left ventrical via the left atrium and mitral valve. Following excision of the right atrium, a pacing electrode (Radnotti) was placed at the level of the atria to allow controlled pacing of the heart.
Following final preparation, the left ventricular balloon was inflated to achieve an end-diastolic pressure of approximately 8-10 mmHg with a constant systolic pressure held between 60-80 mm Hg. The heart was continually perfused with modified Tyrode's solution warmed to 38° C. and was held in an enclosed chamber to maintain humidity and temperature. The heart was paced with a Grass SD9 stimulator (Harvard Apparatus, Montreal QC) at 180 beats per minute with a stimulus of 4 V delivered over 4 ms. Perfusion and ventricular pressures were monitored throughout the experiment using a BioPac data acquisition system (BioPac, Montreal QC).
Radioactivity from all samples were counted in a gamma counter and data was analyzed using Matlab software. […] Maximal uptake values were determined for ^99mTc-sestamibi and Mixture A at varying flow rates (0.35-3.1 ml/min/g LV wet weight).

Data set [4] deals with dog heart. The settings on record: representative dog, critical LAD stenosis, intravenous adenosine; cited from earlier work.
Data set [5] can be described thus: Literature isolated perfused heart data of Marshall et al. 2001. From the text: A slower myocardial exit is beneficial for clinical diagnostic imaging since this permits the physician to gather images over a longer period of time thereby increasing image resolution, sensitivity and quality.
Marshall et al. report slopes of 0.29 and 0.78 for the fitted linear lines to the maximal uptake data for ^99mTc-sestamibi and ^125I-rotenone, respectively. The slopes of the fitted lines to the data for ^99mTc-sestamibi and the isomers of Mixture A shown in FIG. 10 of the present application are 0.33 and 0.86, respectively. The value of the ratio of the slopes of the fitted lines for ^125I-rotenone and ^99mTc-sestamibi from Marshall et al. is 2.69, while the value of the ratio of the slopes of the fitted lines for Mixture A and ^99mTc-sestamibi shown in FIG. 10 is 2.61. […] A linear uptake of tracer with increasing flow is especially desired in a clinical setting since in patients, deficiencies in myocardial perfusion are almost exclusively detected at higher blood flow rates, i.e. during a stress test by comparison of low (ischemic) and high flow (normal) areas.

For data set [6] the following is noted: compared with FIG. 9; cited from earlier work.
The nature of data set [7]: Ex vivo biodistribution in Sprague-Dawley rats. The settings on record: 2 hr p.i. As to the method: An amount of 0.5 mL of a 2.4 mCi/mL mixture of compounds 6-9 (Mixture A: composition comprising isomeric mixture of 12% 6 and 7 diastereomers; 88% 8 and 9 diastereomers) in 7% ethanol was diluted with 0.58 mL of 10 mM sodium acetate, pH 6.5 and 0.023 mL of 95% ethanol, to produce a 1.1 mL of a 1.1 mCi/mL solution having a value of pH of about 5. An amount of 0.8 mL of this solution (0.9 mCi) was injected through the tail veins of 14 Sprague-Dawley rats. Six of the rats were used to assess biodistribution of the mixture of compounds 6-9 after two hours, and the remaining eight rats were used to determine the biodistribution of the compounds after 24 hours. Selected organs were collected and weighed and the activity was measured for each organ with a gamma well counter using the detection range of 138-207 keV, and the measured values of activity were decay-corrected to the time of injection. The values of percentage of injected dose per gram of tissue (% ID/g) were calculated by taking the ratio of the activity in the organ over the total activity injected per gram of tissue. Uptake in the heart of the rat was confirmed by the SPECT/CT images shown in FIG. 5, in which the heart is well defined.
A biodistribution study was conducted according to the method described above using purified fractions of the mixture of isomers 6-9 (Mixture A).
FIGS. 3B-3E show HPLC chromatograms of the four separate fractions used in the biodistribution study: Fraction 1: fraction comprising 100% of Component A*; Fraction 2: fraction comprising an isomeric mixture comprising 15.2% Component A* and 84.8% Component B*; Fraction 3: fraction comprising an isomeric mixture comprising 4.4% Component A*, 4.4% Component B* and 91.2% Component C*; Fraction 4: fraction comprising an isomeric mixture comprising 1.5% Component A*, 0.8% Component B* and 97.7% Component D*.

In data set [8] the test system is rat cardiomyocytes. In words: Cell uptake (internalization) assay with labeled rotenone derivatives. The data set is classed as cell-based. The settings on record: 0.5 μCi tracer, time points up to 5 min. As to the method: An internalization assay was used to test the in vitro function of candidate perfusion tracers. In this assay, cultures of rat cardiomyocytes were plated at a density of 3-5×10^5 cells/mL into 24-well tissue culture plates. The cardiomyocytes were then incubated with 0.5 μCi of radiolabeled tracer ^99mTc-tetrofosmin (Myoview™) or [^123I] iodinated rotenone (mixture containing isomers 6-9) mixed in cell culture medium (DMEM) and incubated for up to five minutes. At different time points, the total supernatant was collected, the cells were washed twice with PBS and then exposed and lysed with 1 M NaOH for 15 min. Samples were counted in a gamma well counter and the cellular protein was determined for the lysed samples. The data was analyzed to represent the total “internalized” fraction expressed as cpm per total protein (FIG. 4).

Where [9] appears, read: flow rates 0.35-3.1 ml/min/g LV wet weight.

As to `[C-]#[N+]CC(C)(C)OC.[C-]#[N+]CC(C)(C)OC.[C-]#[N+]CC(C)(C)OC.[C-]#[N+]CC(C)(C)OC.[C-]#[N+]CC(C)(C)OC.[C-]#[N+]CC(C)(C)OC.[Tc]` [^99mTc-sestamibi], the “slope of the non-linear fitted line, uptake (% ID/g) vs MBF (FIG. 8)” value in data set [1] (pig hearts) was −1.21. For the same molecule, the “myocardial flow rate at which uptake begins to level off (roll off)” value in data set [1] stood at 1.5 mL/min/g. In data set [2] (representative dog, critical LAD stenosis, intravenous adenosine), the “standardized slope (Glover et al. slope divided by 100)” value is given as −1.43. Besides, in data set [3], the “fractional appearance rates at later time points” value was “higher fractional appearance rates” and the “initial peak fractional venous appearance rate” value is given as “lower fractional venous appearance rates”. Moreover, in data set [3] (setting [9]), the “intercept of linear regression, maximum net uptake vs flow” value is reported as 0.14 and the “slope of linear regression, maximum net uptake vs flow (FIG. 10)” value is recorded as 0.33. In data set [4], the “slope of non-linear fitted line, activity (% normal) vs microsphere flow (FIG. 4 of Glover et al.)” value was −143.

With `COc1cc2c(cc1OC)C1C(=O)c3ccc4c(c3OC1CO2)CC(/C(C)=C\[123I])O4` (stereo not shown) [^123I-ZIROT, 7-(Z)-[^123I]iodorotenone], in data set [2] (dog literature data), the “ratio of slope (Broisat et al.) to standardized ^99mTc-Sestamibi slope (Glover et al.)” value is given as 2.5. Further, the “slope of non-linear fitted line, uptake vs microsphere flow (FIG. 3 of Broisat et al.)” value in data set [4] is recorded as −3.59.

Regarding `COc1cc2c(cc1OC)C1C(=O)c3ccc4c(c3OC1CO2)CC(/C(C)=C\[125I])O4` (stereo not shown) [^125I-rotenone, 7′-Z-[^125I]iodorotenone], the “ratio of the slopes of the fitted lines vs ^99mTc-sestamibi (Marshall et al.)” value in data set [5] turned out to be 2.69. In data set [6], the “venous effluent rate at the later portions of the curve (FIG. 1 of Marshall et al.)” value is on record as “higher venous effluent rate relative to the isomers of Mixture A”.

For `[201Tl]` [^201Tl, ^201Thallium], in data set [3], the “fractional appearance rates at later time points” value is reported as “higher fractional appearance rates” and the “initial peak fractional venous appearance rate” value was “lower fractional venous appearance rates”.

Consider `COc1cc2c(cc1OC)[C@@H]1C(=O)c3ccc4c(c3O[C@@H]1CO2)C[C@H](C(C)([123I])CO)O4` (single isomer, unassigned) [B*], for which, in data set [7], the Heart entry was “slightly lower”, the Heart/Liver ratio entry is “relatively higher”, the Intestine result is “significantly higher than others” and the Liver result was “much lower”.

With “Technetium (^99mTc) tetrofosmin [^99mTc-tetrofosmin]”, the “cellular internalization over time (cpm per total protein)” value in data set [8] is given as “evident at 15 s but a gradual increase was seen up to 5 min”. Also, the “myocardial flow rate at which uptake begins to level off (roll off)” value in data set [1] was 2 mL/min/g.

For the molecule `COc1cc2c(cc1OC)[C@@H]1C(=O)c3ccc4c(c3O[C@@H]1CO2)C[C@H](C(C)([123I])CO)O4` (single isomer, unassigned) [Fraction 1], in data set [7], the Blood is 0.191 ± 0.040 % ID/g, the Brain is 0.063 ± 0.013 % ID/g, the Femur came out at 0.239 ± 0.083 % ID/g and the Heart was 1.617 ± 0.335 % ID/g. For the same molecule, in data set [7], the Heart/Blood ratio worked out at 8.46 ± 0.51, the Heart/Liver ratio is 1.20 ± 0.35, the Heart/Lung ratio is listed as 4.54 ± 0.59 and the Intestine came out at 0.787 ± 0.186 % ID/g. In data set [7], this molecule gave a Kidney of 0.634 ± 0.099 % ID/g, a Liver of 1.363 ± 0.101 % ID/g, a Lung of 0.357 ± 0.059 % ID/g and a Muscle of 0.369 ± 0.117 % ID/g. Besides, in data set [7], the Spleen is given as 0.177 ± 0.031 % ID/g, the Stomach was determined as 1.628 ± 0.837 % ID/g, the Testis came out at 0.128 ± 0.017 % ID/g and the Thyroid is reported as 0.826 ± 0.191 % ID/g. In addition, in data set [7], the Urine is reported as 0.528 ± 0.134 % ID/g.
